Five compounds from ChEMBL document CHEMBL1134037, “Novel inhibitors of Leishmanial dihydrofolate reductase” (Bioorg Med Chem Lett, 2001) can be followed below.

In assay [1] the target is T1, Dihydrofolate reductase (Homo sapiens) (UniProt P00374).
T1 sequence (whole entry): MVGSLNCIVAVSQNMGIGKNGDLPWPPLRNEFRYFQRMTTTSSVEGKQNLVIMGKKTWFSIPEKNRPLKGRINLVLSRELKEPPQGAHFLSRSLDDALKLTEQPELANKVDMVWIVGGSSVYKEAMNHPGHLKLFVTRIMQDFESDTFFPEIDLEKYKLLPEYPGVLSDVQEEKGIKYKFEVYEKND
Description: Percent inhibition of compound against recombinant human dihydrofolate reductase at a concentration of 100 uM.

The nature of assay [2]: (§1) Cytotoxicity of compound was determined against rat L-6 cells. It counts as functional, cell-based. The conditions noted are these: L6.
Another assay relates to Leishmania donovani. Description: In vitro inhibition of compound against Leishmania donovani was determined. It counts as functional, organism-based.
In another assay the test system is Trypanosoma cruzi. Description: In vitro inhibition of compound against Trypanosoma cruzi was determined. The assay is classed as functional, organism-based.
The subject of another assay is Trypanosoma brucei. The experiment in a line: In vitro inhibition of compound against Trypanosoma brucei was determined. It counts as functional, organism-based.
Assay [3] deals with Bifunctional dihydrofolate reductase-thymidylate synthase (Leishmania major) (UniProt P07382). The experiment in a line: Percent inhibition of compound against recombinant Leishmanial major dihydrofolate reductase at a concentration of 100 uM.
The target in assay [4] is T1, Dihydrofolate reductase (Homo sapiens). The experiment in a line: Percent inhibition of compound against recombinant human dihydrofolate reductase at a concentration of 50 uM.
Assay [5] shares this target. Description: Percent inhibition of compound against recombinant human dihydrofolate reductase at a concentration of 15 uM.
A short description of assay [6]: as §1. It counts as functional.

The structures appear in SMILES notation. Bounds are passed on as bounds.

Chain of Bifunctional dihydrofolate reductase-thymidylate synthase (Leishmania major) (P07382 whole entry, looked up): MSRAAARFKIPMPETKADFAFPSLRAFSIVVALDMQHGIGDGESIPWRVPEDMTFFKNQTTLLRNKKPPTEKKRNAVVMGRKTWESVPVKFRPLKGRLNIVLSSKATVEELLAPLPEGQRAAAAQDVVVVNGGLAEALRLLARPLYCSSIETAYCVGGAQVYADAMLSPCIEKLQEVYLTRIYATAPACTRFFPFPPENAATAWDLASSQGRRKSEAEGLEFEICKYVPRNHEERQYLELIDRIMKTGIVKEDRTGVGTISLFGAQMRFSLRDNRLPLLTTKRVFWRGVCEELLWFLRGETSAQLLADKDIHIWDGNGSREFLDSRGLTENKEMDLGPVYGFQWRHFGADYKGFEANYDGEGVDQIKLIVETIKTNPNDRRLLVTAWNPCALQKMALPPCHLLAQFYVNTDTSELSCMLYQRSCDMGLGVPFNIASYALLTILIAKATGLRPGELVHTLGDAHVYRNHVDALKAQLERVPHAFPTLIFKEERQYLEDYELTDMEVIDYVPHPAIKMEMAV

With `COC(=O)N[C@H](C(=O)OC)[C@H](O)[C@@H](C)c1c(C)nc2n(C)c3ncn(Cc4ccccc4)c3c(=O)n12`, the inhibition in assay [1] is 16%; in [3] it was 24%. Further, the IC50 in assay [2] was 181 µM; with Leishmania donovani it was < 21 µM; with Trypanosoma cruzi, 53 µM; in the assay on Trypanosoma brucei, 108 µM.
On to `CCOC(=O)/C(C#N)=C/c1ccc(/C=C/c2ccccn2)cc1`, for which the inhibition in assay [1] worked out at 43%; in [3], 50%. For the same compound, the IC50 was > 296 µM in assay [2], 47 µM in the assay with Leishmania donovani, 8.6 µM in the assay with Trypanosoma cruzi and 15 µM with Trypanosoma brucei.
For `O=c1[nH]c(=O)n([C@H]2C[C@H](O)[C@@H](CO)O2)c2nc(-c3ccccc3)c(-c3ccccc3)nc12`, the inhibition stood at 37% in assay [4] and 50% in assay [3]. Besides, the IC50 came to 208 µM in assay [2], 69 µM in the assay with Leishmania donovani, 35 µM in the assay with Trypanosoma cruzi and 11 µM with Trypanosoma brucei.
`CCn1ncc2c1n/c(=N\c1ccccc1)n1ccc3ccccc3c21`: the inhibition was found to be 10% in [1] and 28% in assay [3]. In addition, the IC50 in assay [2] was > 265 µM; with Leishmania donovani, 54 µM; in the assay on Trypanosoma cruzi it was 60 µM; in the assay with Trypanosoma brucei it was 35 µM.
For the compound `COC(=O)/C(C#N)=C/c1ccc(/C=C/c2ccccn2)cc1`, the inhibition in assay [5] was 21%; in assay [3], 32%. The figures for the IC50 with Leishmania donovani, with Trypanosoma cruzi and in the assay with Trypanosoma brucei were 56 µM, 30 µM and 16 µM, respectively. For the same compound, the MIC in [6] is > 310 µM.

The inhibition is the share of the control response that was lost under treatment. For orientation: IC50 means the concentration needed to halve the response being measured.
